Measurements from US20030220521A1, “Renal-selective prodrugs for control of renal sympathetic nerve activity in the treatment of hypertension” (G.D. Searle & Co., priority 1989, published 2003).

Assays:
conscious SHR = assay: Assay XIII: antihypertensive experiments in conscious SHR (renal denervation, bulbocapnine); type: in vivo, rat
Protocol: For antihypertensive experiments, male SHR (11-13 weeks of age; Harlan Sprague-Dawley, Inc.; Indianapolis, Ind.) were habituated for 3-4 days in individual experimental cages, which became their home cages for the duration of the study. Five to seven days before experimentation, SHR were anesthetized with chloral hydrate (400 mg/kg; Sigma Chemical Co., St. Louis, Mo.) and catheters were implanted into a femoral artery and vein. The catheters were led to the back of the neck, exteriorized, and channeled through a tether and swivel system (Alice King Chatham, Los Angeles, Calif.). Surgical renal denervation was performed as above. […] In separate groups of conscious SHR, Ex. #859 (5 mg/kg/hr, n=6) was infused alone, Ex. #859 (5 mg/kg/hr, n=6) was coinfused with bulbocapnine (100 μg/kg/min), or Ex. #859 (10 mg/kg/hr, n=6) was infused 5-7 days after surgical renal denervation. Surgical renal denervation was performed as described above. After a one hour control measure of mean arterial pressure, compounds were infused for four hours and mean arterial pressure was measured continuously.

## CCCCc1ccc(C(=O)NNC(=O)CCC(NC(C)=O)C(=O)O)nc1 [Ex. #859, N-acetyl-L-glutamic acid, 5-[(5-butyl-2-pyridinyl)-carbonyl]hydrazide]
Conscious SHR; BULBO: 5 mg/kg/hr coinfused with bulbocapnine 100 μg/kg/min, 0 hours
  Mean arterial pressure: 168 ± 8
Conscious SHR; BULBO: 5 mg/kg/hr coinfused with bulbocapnine 100 μg/kg/min, 1 hour
  Mean arterial pressure: 158 ± 6
Conscious SHR; BULBO: 5 mg/kg/hr coinfused with bulbocapnine 100 μg/kg/min, 2 hours
  Mean arterial pressure: 148 ± 5
Conscious SHR; BULBO: 5 mg/kg/hr coinfused with bulbocapnine 100 μg/kg/min, 3 hours
  Mean arterial pressure: 140 ± 7
Conscious SHR; BULBO: 5 mg/kg/hr coinfused with bulbocapnine 100 μg/kg/min, 4 hours
  Mean arterial pressure: 140 ± 5
Conscious SHR; DNX: 10 mg/kg/hr after surgical renal denervation, 0 hours
  Mean arterial pressure: 157 ± 3
Conscious SHR; DNX: 10 mg/kg/hr after surgical renal denervation, 1 hour
  Mean arterial pressure: 155 ± 4
Conscious SHR; DNX: 10 mg/kg/hr after surgical renal denervation, 2 hours
  Mean arterial pressure: 53 ± 4
Conscious SHR; DNX: 10 mg/kg/hr after surgical renal denervation, 3 hours
  Mean arterial pressure: 150 ± 4
Conscious SHR; DNX: 10 mg/kg/hr after surgical renal denervation, 4 hours
  Mean arterial pressure: 147 ± 4
Conscious SHR; conscious SHR, 5 mg/kg/hr coinfused with bulbocapnine (100 μg/kg/min)
  effect on mean arterial pressure over a four hour period: lowered mean arterial pressure similar to Ex. #859 alone
Conscious SHR; conscious SHR, 10 mg/kg/hr, 5-7 days after surgical renal denervation
  antihypertensive response: prevented the antihypertensive response
Conscious SHR; conscious SHR, continuous infusion 5 mg/kg/hr alone
  effect on mean arterial pressure over a four hour period: antihypertensive
Conscious SHR; infused alone 5 mg/kg/hr, 0 hours
  Mean arterial pressure: 177 ± 6
Conscious SHR; infused alone 5 mg/kg/hr, 1 hour
  Mean arterial pressure: 172 ± 6
Conscious SHR; infused alone 5 mg/kg/hr, 2 hours
  Mean arterial pressure: 170 ± 7
Conscious SHR; infused alone 5 mg/kg/hr, 3 hours
  Mean arterial pressure: 164 ± 7
Conscious SHR; infused alone 5 mg/kg/hr, 4 hours
  Mean arterial pressure: 154 ± 6
other
  melting point: 191.5 to 192 °C
